Results on 18 molecules are retold here after US4005217A, “Treatment of helminth infections with substituted phenyl-thiourea derivatives” (May & Baker Limited, priority 1970, dated 1977).

Converted amounts (≈) assume the structure as drawn. Structures can show the parent of a compound that is named as a salt.

Experiment [1] relates to Nippostrongylus brasiliensis. Put plainly: Test 2: activity against roundworms in rats, treatment 24 hours after infection, worm counts 6 days after dosing. The note with it: rats; for inhibition in vivo at 1000 mg/kg / worm damage: Test 2, 1000 mg/kg oral. It is filed as in vivo. The protocol:
Test 2 -- Rats were infected with 100 Nippostrongylus brasiliensis larvae each, by the subcutaneous route. After 24 hours the rats were randomised and allotted to groups of 5 animals each, ready for treatment. Doses of the test compound were then administered to each group by the oral, subcutaneous and intraperitoneal routes respectively, one group of 10 animals being left untreated as a control. All the rats were killed for post-mortem worm counts 6 days after dosing. The activities, expressed in terms of the percentage reductions in mean worm load of the treated groups or damage to the worms compared with the untreated control group, are given below in Table I.

For experiment [2], the system named is Nippostrongylus brasiliensis eggs. As to the kind of experiment: In vitro activity against roundworms (egg hatching and larvae). It is filed as cell-based. The note with it: 96 h, tested at 100, 10, 1 and 0.1 μg/ml, inhibited or delayed hatching of eggs, or killed, retarded growth or reduced activity of larvae during 4 days, read-out: M.I.C. (minimum inhibitory concentration). As for the experimental part: Compounds of formula I were tested at concentrations of 100 μg/ml, 10 μg/ml, 1 μg/ml and 0.1 μg/ml in small glass containers. If the compound was not soluble in water, a volatile organic medium, e.g. acetone, chloroform, ethanol or methanol was used. An amount of material appropriate for each final concentration was measured and placed in duplicate test containers and if an organic solvent was used it was allowed to evaporate completely. Nippostrongylus brasiliensis eggs were recovered by saturated saline centrifugal flotation from the faeces of rats heavily infected with third stage larvae six days previously. They were washed several times in water and suspended in water in a suitable concentration. From 25-50 eggs were placed in each container and the final volume was made up by the addition of a very dilute aqueous suspension of mouse faeces which served as the growth medium. The minimum inhibitory concentrations of each compound (M.I.C.), shown in the following Table V was the minimum concentration in μg/ml total liquid volume at which it inhibited or delayed hatching of eggs, or at which it killed, retarded growth or reduced activity of larvae during the 4 days after beginning the test.

Experiment [3] relates to influenza virus type A2 /Hong Kong/5/68. It is filed as in vivo. The note with it: mice, 250 mg/kg oral 3 hours before and 1 hour after infection; pooled lungs 24 hours after infection; greatest dilution producing agglutination.
For experiment [4], the system named is Nippostrongylus brasiliensis. Put plainly: Test 1: activity against roundworms in rats, treatment 6 days after infection (patent infection), worm counts 48 hours after treatment. It is filed as in vivo. The settings on record: Test 1, 1000 mg/kg oral; for inhibition in vivo at 1000 mg/kg: Nippostrongylus brasiliensis, po, 48 h, read-out: Percentage reduction in N.brasiliensis load. As for the experimental part: Test 1 - Rats were infected with 100 Nippostrongylus brasiliensis larvae each, by the subcutaneous route. After 6 days, when the infection was patent, the rats were randomised and alloted to groups of 10 animals each, ready for treatment. One group was used for each dose level of the test compound and, in each experiment, one group was left untreated as a control. All the rats were killed for post-mortem worm counts 48 hours after treatment. The activity, expressed in terms of the percentage reduction in mean worm load of the treated group compared with the untreated group, is shown in Table I.

The test system of a further experiment is Haemonchus contortus. Put plainly: Activity against mature adult stages in lambs, oral treatment (Table III). It is filed as in vivo. The note with it: 120 h, 15 mg/kg oral, read-out: Mean percentage reduction in worm burdens, H.contortus. The protocol:
(§1) ii. 20 Worm-free lambs were each infected with H. contortus (approximately 5,600), T. axei (approximately 9,300) and T. colubriformis (approximately 10,000) infective larvae. After 22 days, 16 lambs were treated orally with 15 mg/kg animal body weight of the 8 test compounds, i.e. 2 lambs per compound, against the mature adult stages of the worms. 27 Days after infection, all 20 lambs were killed for post-mortem worm counts and the burden of each worm species in the 16 treated animals compared with those in the remaining 4 untreated control animals.

The subject of a further experiment is Trichostrongylus axei. Described as above. It is filed as in vivo. The note with it: 120 h, 15 mg/kg oral, read-out: Mean percentage reduction in worm burdens, T.axei. As for the experimental part:
as §1

Experiment [5] relates to Trichostrongylus colubriformis. Described as above. It is filed as in vivo. The settings on record: 120 h, 15 mg/kg oral, read-out: Mean percentage reduction in worm burdens, T.colubriformis. The protocol:
as §1

Experiment [6] relates to naturally acquired strongyle infections. As to the kind of experiment: Effect on faecal egg output in naturally infected sheep (ewes). It is filed as in vivo, O. circumcincta, H. contortus and Cooperia spp. The settings on record: 50 mg/kg oral. As for the experimental part: Faecal material from sheep with naturally acquired strongyle infections was incubated for 7 days at 27° C. followed by identification of the infective larvae present. Amongst those species present were O. circumcincta, H. contortus and Cooperia spp.
Egg counts were carried out on individual samples of faeces taken from the animals two and one day previous to dosings.
Egg counts were made using the McMaster technique. If a count by this technique was negative, a positive/negative egg flotation determination was made.
A group of 3 ewes was treated orally with 50 mg/kg animal body weight of test compound and further egg counts made at intervals for 3 weeks after treatment.

Setting [7] is: Nippostrongylus brasiliensis, 144 h, read-out: Percentage reduction in N.brasiliensis load.

Take `Nc1ccccc1NC(=S)NC(=O)OCCCl` [1-(2-chloroethoxycarbonyl)-3-(2-aminophenyl)thiourea]: in experiment [1] (setting [7]), the inhibition in vivo at 1000 mg/kg stood at 96%. The worm damage entry in experiment [1] is reported as “worm damage”. In experiment [2], the MIC was 100 µg/mL (≈ 365 µM). In experiment [3], the Haemagglutinin titre-treated animals was 1/32.
As to `CCCCN(C)CC(=O)Nc1ccccc1NC(=S)NC(=O)OCC` [1-ethoxycarbonyl-3-(2-N-n-butyl-N-methylaminoacetamidophenyl)thiourea hydrochloride], the inhibition in vivo at 1000 mg/kg in experiment [4] is 86%; in experiment [1] (setting [7]) it was 99%. Further, the worm damage result in experiment [4] and in experiment [1] was “worm damage” in each case. Further, in experiment [2], the MIC was 1 µg/mL. Further, the Haemagglutinin titre-treated animals in experiment [3] is 1/4.
For `CCOC(=O)NC(=S)Nc1cc(NC(=O)OC(C)C)ccc1NC(C)=O` [1-ethoxycarbonyl-3-(2-acetamido-5-isopropoxycarbonylaminophenyl)thiourea], the Haemagglutinin titre-treated animals in experiment [3] is reported as 1/256.
For the molecule `CCOC(=O)NC(=S)Nc1ccc(F)cc1N` [1-ethoxycarbonyl-3-(2-amino-4-fluorophenyl)thiourea], the inhibition in vivo at 1000 mg/kg in experiment [1] (setting [7]) came to 50%. Moreover, in experiment [1], the worm damage entry is “worm damage”. Moreover, the MIC in experiment [2] was 1 µg/mL (≈ 3.89 µM). For the same molecule, the Haemagglutinin titre-treated animals in experiment [3] was 1/32.
Take `COC(=O)NC(=S)Nc1ccc(NC(=O)OC(C)C)cc1NC(C)=O` [1-methoxycarbonyl-3-(2-acetamido-4-isopropoxycarbonylaminophenyl)thiourea]: the Haemagglutinin titre-treated animals in experiment [3] was 1/256.
On to `COC(=O)NC(=S)Nc1cc(NC(=O)OC(C)C)ccc1NC(C)=O` [1-methoxycarbonyl-3-(2-acetamido-5-isopropoxycarbonylaminophenyl)thiourea], for which, in experiment [3], the Haemagglutinin titre-treated animals is recorded as 1/128.
As to `CCCCc1ccc(NC(C)=O)c(NC(=S)NC(=O)OC)c1` [1-methoxycarbonyl-3-(2-acetamido-5-n-butylphenyl)thiourea], the worm damage entry in experiment [4] and in experiment [1] was “worm damage” throughout. In addition, in experiment [1] (setting [7]), the inhibition in vivo at 1000 mg/kg was 99%. Moreover, the inhibition in vivo at 15 mg/kg came to 82.1% in the experiment on Haemonchus contortus, 98.2% with Trichostrongylus axei and 95% in experiment [5]. In addition, the MIC in experiment [2] is 0.1 µg/mL (≈ 0.309 µM).
For the molecule `COC(=O)NC(=S)Nc1ccc(NC(=O)OC)cc1N` [1-methoxycarbonyl-3-(2-amino-4-methoxycarbonylaminophenyl)thiourea], the inhibition in vivo at 1000 mg/kg in experiment [4] and in experiment [1] (setting [7]) was 100% in each case. In addition, the inhibition in vivo at 250 mg/kg in experiment [1] (Nippostrongylus brasiliensis, 144 h, Test 2, 250 mg/kg oral, read-out: Percentage reduction in N.brasiliensis load) amounted to 99%. In addition, in experiment [1] (Nippostrongylus brasiliensis, 144 h, Test 2, 500 mg/kg oral, read-out: Percentage reduction in N.brasiliensis load), the inhibition in vivo at 500 mg/kg came out at 99%. For the same molecule, the MIC in experiment [2] is 100 µg/mL (≈ 335 µM). In addition, the Haemagglutinin titre-treated animals in experiment [3] was 1/512.
`COC(=O)NC(=S)Nc1ccccc1N` [1-methoxycarbonyl-3-(2-aminophenyl)thiourea]: in experiment [4], the “Percentage reduction in N.brasiliensis load” value is 99%. In experiment [4], the worm damage entry was “worm damage”. Besides, the “Mean faecal egg count/gm. faeces” value in experiment [6] (1 day after treatment) is given as 450 /gm. faeces; in experiment [6] (2 days before treatment (baseline)), 250 /gm. faeces; in experiment [6] (4 days after treatment) it was 250 /gm. faeces; in experiment [6] (6 days after treatment), 50 /gm. faeces; in experiment [6] (8 days after treatment), 134 /gm. faeces; in experiment [6] (15 days after treatment) it was 75 /gm. faeces. Moreover, the “Mean faecal egg count/gm. faeces” value in experiment [6] (18 days after treatment) is 100 /gm. faeces; in experiment [6] (20 days after treatment), 50 /gm. faeces; in experiment [6] (22 days after treatment), 50 /gm. faeces. Also, the MIC in experiment [2] worked out at 0.1 µg/mL (≈ 0.444 µM).
Consider `CCCCc1ccc(NC(=O)C2CC2)c(NC(=S)NC(=O)OC)c1` [1-methoxycarbonyl-3-(2-cyclopropylcarbonamido-5-n-butylphenyl)thiourea], for which the MIC in experiment [2] was 0.1 µg/mL (≈ 0.286 µM). Moreover, the Haemagglutinin titre-treated animals in experiment [3] was 1/128.
As for `COC(=O)NC(=S)Nc1ccc(NC(=O)OC(C)C)cc1NC=O` [1-methoxycarbonyl-3-(2-formamido-4-isopropoxycarbonylaminophenyl)thiourea], the results for the inhibition in vivo at 15 mg/kg (in the experiment with Haemonchus contortus; in the experiment with Trichostrongylus axei; in experiment [5]) were 40.1%, 70.8% and 29.6%, respectively.
On to `COC(=O)NC(=S)Nc1ccccc1NC(=O)C[N+](C)(C)C` [1-methoxycarbonyl-3-(2-trimethylammoniumacetamidophenyl)thiourea iodide], for which, in experiment [1], the worm damage entry is on record as “worm damage”. Also, the MIC in experiment [2] turned out to be 1 µg/mL. The Haemagglutinin titre-treated animals in experiment [3] is given as 1/256.
On to `COC(=O)NC(=S)Nc1cc(NC(=O)OC(C)C)ccc1NC=O` [1-methoxycarbonyl-3-(2formamido-5-isopropoxycarbonylaminophenyl)thiourea], for which the Haemagglutinin titre-treated animals in experiment [3] was 1/256.
As for `CCCCc1ccc(NC(=S)NC(=O)OC)c(NC(=O)C2CC2)c1` [1-methoxycarbonyl-3-(4-n-butyl-2-cycloproplycarbonamidophenyl)thiourea], the inhibition in vivo at 15 mg/kg with Haemonchus contortus worked out at 58.4%; in the experiment with Trichostrongylus axei, 57.6%; in experiment [5] it was 27.1%. The MIC in experiment [2] was found to be 0.1 µg/mL (≈ 0.286 µM).
For the molecule `CCCCc1ccc(NC(=S)NC(=O)OC)c(NC=O)c1` [1-methoxycarbonyl-3-(4-n-butyl-2-formamidophenyl)thiourea], the inhibition in vivo at 15 mg/kg with Haemonchus contortus amounted to 84.3%; in the experiment with Trichostrongylus axei it was 84.2%; in experiment [5] it was 36.9%. Further, the MIC in experiment [2] is 0.1 µg/mL (≈ 0.323 µM).
With `CCCCc1ccc(NC=O)c(NC(=S)NC(=O)OC)c1` [1-methoxycarbonyl-3-(5n-butyl-2-formamidophenyl)thiourea], in experiment [1] (setting [7]), the inhibition in vivo at 1000 mg/kg is 96%. Moreover, in experiment [1], the worm damage entry is on record as “worm damage”. The MIC in experiment [2] amounted to 0.1 µg/mL (≈ 0.323 µM). The Haemagglutinin titre-treated animals in experiment [3] was 1/32.
`COC(=O)NC(=S)Nc1ccccc1NC(=O)CCN(C)C.Cl` [1-methoxycarbonyl-3-[2-(3-dimethylaminopropionamido)phenyl]thiourea hydrochloride]: the inhibition in vivo at 1000 mg/kg in experiment [4] worked out at 20%; in experiment [1] (setting [7]), 98%. The worm damage entry in experiment [4] and in experiment [1] was “worm damage” throughout. Further, the MIC in experiment [2] was found to be 1 µg/mL.
With `C#CCOC(=O)NC(=S)Nc1ccccc1N` [1-propargyloxycarbonyl-3-(2-aminophenyl)thiourea], in experiment [4], the inhibition in vivo at 1000 mg/kg turned out to be 76% and the worm damage result was “worm damage”. The inhibition in vivo at 1000 mg/kg in experiment [1] (setting [7]) is 100%. Besides, in experiment [2], the MIC is 1 µg/mL (≈ 4.01 µM).
